Consider 11 compounds from ChEMBL document CHEMBL3758176, “Synthesis of dihydrosterculic acid-based monoglucosyl diacylglycerol and its analogues and their biological evaluation” (Eur J Med Chem, 2016).

Activity calls are given as the source filed them. No cut-off for these calls is given here.

For assay [1], the system named is MCF7. Briefly: Cytotoxicity against human MCF7 cells assessed as reduction in cell viability by MTT assay. Format: functional, cell-based. (In general: Tetrazolium assays rely on reduction of a dye to a coloured formazan, in cell work by metabolically active cells.)
Assay [2] can be described thus: Cytotoxicity against human DU145 cells assessed as reduction in cell viability by MTT assay. Format: functional, cell-based, DU-145.
A further assay concerns A549. Briefly: Cytotoxicity against human A549 cells assessed as reduction in cell viability by MTT assay. Format: functional, cell-based.
The nature of assay [3]: Cytotoxicity against human SKOV3 cells assessed as reduction in cell viability by MTT assay. Format: functional, cell-based, SK-OV-3.
For the next assay, the system named is HUVEC. Briefly: Cytotoxicity against HUVEC assessed as reduction in cell viability by MTT assay. It is filed as cell-based, Homo sapiens.
For assay [4], the system named is MCF7. Briefly: Induction of apoptosis in human MCF7 cells assessed as caspase-9 activation using AFC-conjugated Ac-LEHD as substrate at 5 to 10 uM incubated for 24 to 48 hrs by fluorescence assay relative to untreated control. It is filed as functional.
Assay [5] concerns MCF7. Briefly: Antiproliferative activity against human MCF7 cells assessed as decrease in cell proliferation at 5 to 10 uM after 24 hrs by bromodeoxyuridine cell proliferation assay relative to untreated control. Format: functional, cell-based.
Assay [6] has as its system MCF7. Briefly: Induction of apoptosis in human MCF7 cells assessed as caspase-3 activation using AFC-conjugated Ac-DEVD as substrate at 5 to 10 uM incubated for 24 to 48 hrs by fluorescence assay relative to untreated control. Format: functional.
[7] abbreviates: Homo sapiens, MCF7, read-out: IC50.
The mark [8] stands for this setting: Homo sapiens, DU-145, read-out: IC50.
Setting [9] is: Homo sapiens, A549, read-out: IC50.
The mark [10] stands for this setting: Homo sapiens, SK-OV-3, read-out: IC50.
The mark [11] stands for this setting: Homo sapiens, HUVEC, read-out: IC50.

As a reminder, the IC50 is the concentration needed to halve the response being measured. For the compound `CCCCCCCCC1CC1CCCCCCCC(=O)OC[C@H](CO[C@@H]1O[C@H](COC(C)=O)[C@@H](OC(C)=O)[C@H](OC(C)=O)[C@H]1OC(C)=O)OC(=O)CCCCCCCC1CC1CCCCCCCC` (stereo partly specified), the IC50 result (in the assay on MCF7 [1] (mcf7); in assay [2] (du-145); with A549 (a549); in assay [3] (sk-ov-3); in the assay on HUVEC (huvec)) was “Not Active” each time.
With `CCCCCCCC/C=C\CCCCCCCC(=O)OC[C@H](CO[C@@H]1O[C@H](COC(C)=O)[C@@H](OC(C)=O)[C@H](OC(C)=O)[C@H]1OC(C)=O)OC(=O)CCCCCCC/C=C\CCCCCCCC`, the IC50 result (in the assay on MCF7 [1] (mcf7); in assay [2] (du-145); in the assay with A549 (a549); in assay [3] (sk-ov-3); in the assay with HUVEC (huvec)) was “Not Active” each time.
In the case of `CCCCCCCC/C=C\CCCCCCCC(=O)OC[C@H](CO[C@@H]1O[C@H](CO)[C@@H](O)[C@H](O)[C@H]1O)OC(=O)CCCCCCC/C=C\CCCCCCCC`, the half-maximal inhibitory concentration (IC50) in the assay with MCF7 [1] (setting [7]) came to 17.6 µM; in assay [2] (setting [8]) it was 20.1 µM; with A549 (setting [9]) it was 18.2 µM; in assay [3] (setting [10]), 19.1 µM; with HUVEC (setting [11]), 110 µM. In addition, the “fold change (FC)” value in the assay on MCF7 [4] and in the assay with MCF7 [6] was 2 throughout. In the assay with MCF7 [5], the result was Active.
Take `CCCCCCCCC1CC1CCCCCCCC(=O)OC[C@H](CO[C@@H]1O[C@H](CO)[C@@H](O)[C@H](O)[C@H]1O)OC(=O)CCCCCCCC1CC1CCCCCCCC` (stereo partly specified): the IC50 in the assay with MCF7 [1] (setting [7]) is 99.8 µM; in assay [2] (setting [8]) it was 210 µM; with A549 (setting [9]), 124 µM; in assay [3] (setting [10]) it was 112 µM; in the assay with HUVEC (setting [11]), 120 µM.
Consider `CCCCCCCC/C=C\CCCCCCCC(=O)O[C@H](COC(=O)CCCCCCCC1CC1CCCCCCCC)CO[C@@H]1O[C@H](COC(C)=O)[C@@H](OC(C)=O)[C@H](OC(C)=O)[C@H]1OC(C)=O` (stereo partly specified), for which the IC50 in the assay with MCF7 [1] (setting [7]) is 94.2 µM; in assay [2] (setting [8]) it was 186 µM; in the assay on A549 (a549) it was “Not Active”; in assay [3] (sk-ov-3) it was “Not Active”; with HUVEC (setting [11]), 122 µM.
`C=CCCCCCCCCC(=O)OC[C@H](CO[C@@H]1O[C@H](CO)[C@@H](O)[C@H](O)[C@H]1O)OC(=O)CCCCCCCCC=C`: the IC50 was 32.5 µM in the assay with MCF7 [1] (setting [7]); 119 µM in assay [2] (setting [8]); 106 µM with A549 (setting [9]); 89.6 µM in assay [3] (setting [10]); 126 µM in the assay with HUVEC (setting [11]).
The corresponding values for `CCCCCCCC/C=C\CCCCCCCC(=O)O[C@H](COC(=O)CCCCCCCC1CC1CCCCCCCC)CO[C@@H]1O[C@H](CO)[C@@H](O)[C@H](O)[C@H]1O` (stereo partly specified) are 38.2 µM, 38.9 µM, 41.6 µM, 35.6 µM and 99.8 µM.
For the compound `CCCCCCCCCCCC(=O)OC[C@H](CO[C@@H]1O[C@H](COC(C)=O)[C@@H](OC(C)=O)[C@H](OC(C)=O)[C@H]1OC(C)=O)OC(=O)CCCCCCCCCCC`, the IC50 entry (in the assay with MCF7 [1] (mcf7); in assay [2] (du-145); with A549 (a549); in assay [3] (sk-ov-3); in the assay with HUVEC (huvec)) was “Not Active” throughout.
As for `CCCCCCCCCCCC(=O)OC[C@H](CO[C@@H]1O[C@H](CO)[C@@H](O)[C@H](O)[C@H]1O)OC(=O)CCCCCCCCCCC`, the IC50 with MCF7 [1] (setting [7]) was 32.6 µM; in assay [2] (setting [8]) it was 54.9 µM; in the assay with A549 (setting [9]), 35.6 µM; in assay [3] (setting [10]) it was 44.4 µM; in the assay on HUVEC (setting [11]) it was 96.1 µM.
`C=CCCCCCCCCC(=O)OC[C@H](CO[C@@H]1O[C@H](COC(C)=O)[C@@H](OC(C)=O)[C@H](OC(C)=O)[C@H]1OC(C)=O)OC(=O)CCCCCCCCC=C`: the IC50 in the assay with MCF7 [1] (setting [7]) came out at 25.6 µM; in assay [2] (setting [8]), 33 µM; in the assay on A549 (setting [9]), 30.2 µM; in assay [3] (setting [10]), 29.4 µM; with HUVEC (setting [11]), 119 µM.
On to `COc1cccc2c1C(=O)c1c(O)c3c(c(O)c1C2=O)C[C@@](O)(C(=O)CO)C[C@@H]3O[C@H]1C[C@H](N)[C@H](O)[C@H](C)O1` [DOXORUBICIN], for which the concentration for half-maximal inhibition (IC50) in assay [2] (setting [8]) amounted to 0.7 µM; in assay [3] (setting [10]) it was 0.7 µM; with HUVEC (setting [11]) it was 79.6 µM.
